# Values of other authors, collected in patent US9789059B2, “Oral disintegrating tablet” (Boehringer Ingelheim International GmbH, priority 2014, dated 2017).
# Settings: physiological pH range of the gastro-intestinal tract between pH 1 to 7; free acid form
smiles,measurement,value
"CCCc1nc2c(C)cc(-c3nc4ccccc4n3C)cc2n1Cc1ccc(-c2ccccc2C(=O)O)cc1 [Telmisartan, 4′-[2-n-propyl-4-methyl-6-(1-methylbenzimidazol-2-yl)-benzimidazol-1-ylmethyl]-biphenyl-2-carboxylic acid]",solubility in aqueous systems,very poor solubility
